Source: patent US11058707B2, “Methods for treating ischemic heart disease by targeting TRPV4” (Northeast Ohio Medical University, priority 2018, dated 2021)

How the values were obtained:
[1] = tested on: human ventricular fibroblasts; assay: TGF-b1-induced differentiation of human ventricular fibroblasts to myofibroblasts (immunofluorescence, α-SMA); assay type: cell-based; conditions: AB1+TGFβ1 vs TGFβ1; immunofluorescence actin/α-SMA/DAPI (FIG. 5A-5C)
WT mice subjected to MI = assay: Myocardial infarction (LAD ligation) in WT mice treated orally with TRPV4 antagonist; echocardiography and histology; assay type: in vivo
Method: WT mice were subjected to MI by ligating LAD. MI mice were then given orally a specific TRPV4 antagonist, GSK2193874 (GSK2) (10 mg/Kg/day) or vehicle (0.01% DMSO/water).
Orally active TRPV4 antagonist GSK2193874 was given immediately after MI surgery and followed for 5 weeks.

[2] = given immediately after MI surgery, followed for 5 weeks, vs WT or vehicle treated mice

Row | Structure (SMILES) | TGF-b1-induced differentiation of human ventricular fibroblasts [1] | cardiac fibrosis (Masson's trichrome staining) at the infarct zone and remote zone (WT mice subjected to MI; GSK2 treated-MI hearts vs Vehicle treated-MI hearts (FIG. 16)) | ejection fraction (WT mice subjected to MI; [2]) | fractional shortening (WT mice subjected to MI; [2]) | cardiac function: ejection fraction (WT mice subjected to MI; post-MI WT mice, 10 mg/Kg/day orally vs vehicle (0.01% DMSO/water), echocardiography (FIG. 11A)) | cardiac function: fractional shortening (WT mice subjected to MI; post-MI WT mice, 10 mg/Kg/day orally vs vehicle (0.01% DMSO/water), echocardiography (FIG. 11B))
1 | CC(C)NCCN(C(C)C)S(=O)(=O)c1ccc(Cl)cc1Cl [AB159908, 2,4-dichloro-N-isopropyl-N-(2-isopropylaminoethyl)benzenesulfonamide] | attenuation |  |  |  |  | 
2 | O=C(NC1(c2ccccc2)CC1)c1c(CN2CCC(N3CCCCC3)CC2)c(-c2cccc(C(F)(F)F)c2)nc2cc(Br)ccc12 [GSK2193874, 3-([1,4′-bipiperidin]-1′-ylmethyl)-7-bromo-N-(1-phenylcyclopropyl)-2-[3-(trifluoromethyl)phenyl]-4-quinolinecarboxamide] |  | significantly reduced | preserved | preserved | preserved | preserved
